Here are results for 17 compounds from ChEMBL document CHEMBL1143618, “Discovery of a beta-MSH-derived MC-4R selective agonist” (J Med Chem, 2005).

The target in assay [1] is T1, Melanocortin receptor 4 (Homo sapiens, UniProt P32245). As to the kind of experiment: Agonist activity at human Melanocortin-4 receptor as peptide required for 50% maximal cAMP release (n > or =2). Format: functional.
The target of assay [2] is T2, Melanocortin receptor 3 (Homo sapiens, UniProt P41968). As to the kind of experiment: Inhibition of [125I]-NDP-alpha-MSH binding to melanocortin-3 receptor expressed in HEK293 cells. Format: cell-based.
T2 sequence (P41968 whole entry): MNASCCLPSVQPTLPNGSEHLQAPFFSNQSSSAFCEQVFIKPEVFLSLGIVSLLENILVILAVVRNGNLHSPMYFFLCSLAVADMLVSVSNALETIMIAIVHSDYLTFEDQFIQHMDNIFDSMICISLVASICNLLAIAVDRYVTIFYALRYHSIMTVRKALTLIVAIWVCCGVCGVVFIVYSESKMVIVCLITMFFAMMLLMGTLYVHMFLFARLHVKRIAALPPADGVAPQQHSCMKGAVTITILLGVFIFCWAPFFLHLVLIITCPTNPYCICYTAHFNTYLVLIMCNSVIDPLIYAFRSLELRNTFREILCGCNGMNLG
For assay [3], the target named is Melanocyte-stimulating hormone receptor (Homo sapiens, UniProt Q01726). As to the kind of experiment: Inhibition of [125I]NDP-alpha-MSH binding to melanocortin-1 receptor expressed in HEK293 cells. The class given is cell-based.
Melanocyte-stimulating hormone receptor, sequence (Q01726 whole entry): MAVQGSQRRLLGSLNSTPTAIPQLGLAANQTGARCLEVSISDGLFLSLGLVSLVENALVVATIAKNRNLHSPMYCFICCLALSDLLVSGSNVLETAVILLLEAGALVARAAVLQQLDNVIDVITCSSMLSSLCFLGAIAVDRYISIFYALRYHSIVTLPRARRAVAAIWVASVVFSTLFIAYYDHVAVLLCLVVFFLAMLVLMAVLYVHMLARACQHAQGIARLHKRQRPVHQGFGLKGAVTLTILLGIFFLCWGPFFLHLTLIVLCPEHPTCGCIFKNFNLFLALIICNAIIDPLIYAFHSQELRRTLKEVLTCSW
In assay [4] the target is T1, Melanocortin receptor 4. Briefly: Inhibition of [125I]NDP-alpha-MSH binding to melanocortin-4 receptor expressed in HEK293 cells. The class given is cell-based.
Another assay has as its target Melanocortin receptor 5 (Homo sapiens, UniProt P33032). Briefly: Inhibition of [125I]NDP-alpha-MSH binding to melanocortin-5 receptor expressed in HEK293 cells. Format: cell-based.
Assay [5] concerns the target Melanocortin receptor 4 (Rattus norvegicus, UniProt P70596). Briefly: Binding affinity for rat melanocortin-4 receptor.
Assay [6] deals with T2, Melanocortin receptor 3. As to the kind of experiment: Agonist activity at human Melanocortin-3 receptor as peptide required for 50% maximal cAMP release. The class given is functional.

pEC50, pKi: −log10 of the molar value.

T1 sequence (P32245 whole entry): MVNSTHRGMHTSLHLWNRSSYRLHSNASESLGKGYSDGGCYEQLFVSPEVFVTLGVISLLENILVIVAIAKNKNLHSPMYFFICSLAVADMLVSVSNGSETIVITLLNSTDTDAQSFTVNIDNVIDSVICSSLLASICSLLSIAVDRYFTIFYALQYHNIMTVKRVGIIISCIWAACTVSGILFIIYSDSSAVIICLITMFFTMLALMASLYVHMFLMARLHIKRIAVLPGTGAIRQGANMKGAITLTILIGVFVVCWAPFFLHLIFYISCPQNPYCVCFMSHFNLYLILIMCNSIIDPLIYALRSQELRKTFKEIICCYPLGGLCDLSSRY
Melanocortin receptor 5, sequence (P33032 whole entry): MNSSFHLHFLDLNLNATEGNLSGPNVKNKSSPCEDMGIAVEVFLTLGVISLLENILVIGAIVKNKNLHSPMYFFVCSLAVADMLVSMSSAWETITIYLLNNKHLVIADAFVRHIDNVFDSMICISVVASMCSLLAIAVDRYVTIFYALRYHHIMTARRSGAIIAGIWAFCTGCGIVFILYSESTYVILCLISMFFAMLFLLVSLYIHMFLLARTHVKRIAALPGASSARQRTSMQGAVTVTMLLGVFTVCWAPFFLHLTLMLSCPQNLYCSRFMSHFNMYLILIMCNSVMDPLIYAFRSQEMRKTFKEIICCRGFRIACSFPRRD
Melanocortin receptor 4 (Rattus norvegicus, UniProt P70596), sequence (P70596 whole entry): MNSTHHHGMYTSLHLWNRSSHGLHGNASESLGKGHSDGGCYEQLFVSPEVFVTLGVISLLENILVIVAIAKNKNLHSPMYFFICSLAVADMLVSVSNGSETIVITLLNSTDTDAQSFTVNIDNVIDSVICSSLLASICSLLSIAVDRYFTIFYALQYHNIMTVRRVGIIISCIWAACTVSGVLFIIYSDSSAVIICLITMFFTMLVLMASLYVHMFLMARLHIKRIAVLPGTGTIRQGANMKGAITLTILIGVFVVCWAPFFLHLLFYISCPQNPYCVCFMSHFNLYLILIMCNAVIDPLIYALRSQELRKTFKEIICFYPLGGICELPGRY

As a reminder, the pEC50 is the EC50 on a negative log10 scale, so that one unit is a factor of ten. A high value points to a small EC50. As a reminder, the pKi is the negative decadic logarithm of the Ki, by convention in mol/L. Higher therefore signals a small Ki. For the compound `CC(=O)N[C@@H](Cc1ccc(O)cc1)C(=O)N[C@@H](CCCN=C(N)N)C(=O)N[C@H]1CSSC[C@@H](C(=O)N[C@@H](CO)C(=O)N2CCC[C@H]2C(=O)N2CCC[C@H]2C(=O)N[C@@H](CCCCN)C(=O)N[C@@H](CC(=O)O)C(N)=O)NC(=O)[C@H](Cc2c[nH]c3ccccc23)NC(=O)[C@H](CCCN=C(N)N)NC(=O)[C@@H](Cc2ccccc2)NC(=O)[C@H](Cc2c[nH]cn2)NC(=O)[C@H](CCC(=O)O)NC1=O`, the pEC50 at Melanocortin receptor 4 [1] is 9.62. Moreover, the negative logarithm of the Ki (pKi) is 8.10 at Melanocortin receptor 3 [2], 9.24 in assay [3], 9.28 at Melanocortin receptor 4 [4] and < 6.30 on Melanocortin receptor 5.
`CC(=O)N[C@@H](Cc1ccc(O)cc1)C(=O)N[C@@H](CCCNC(=N)N)C(=O)N[C@H]1CSSC[C@@H](C(N)=O)NC(=O)[C@H](Cc2c[nH]c3ccccc23)NC(=O)[C@H](CCCNC(=N)N)NC(=O)[C@@H](Cc2ccccc2)NC(=O)[C@H](Cc2cncn2C)NC(=O)[C@H](CCC(=O)O)NC1=O` showed a pEC50 on Melanocortin receptor 4 [1] of 9.27. Besides, the pKi was < 6.30 on Melanocortin receptor 3 [2], < 6.30 in assay [3], 8.18 at Melanocortin receptor 4 [4] and < 6.30 on Melanocortin receptor 5.
Turning to `CC(=O)N[C@@H](Cc1ccc(O)cc1)C(=O)N[C@@H](CCCNC(=N)N)C(=O)N[C@H]1CSSC[C@@H](C(N)=O)NC(=O)[C@H](Cc2c[nH]c3ccccc23)NC(=O)[C@H](CCCNC(=N)N)NC(=O)[C@@H](Cc2ccccc2)NC(=O)[C@H](Cc2c[nH]cn2)NC(=O)[C@H](CCC(=O)O)NC1=O`, the negative-log Ki (pKi) at Melanocortin receptor 4 [5] is 9.28; in assay [3], 7.77; on Melanocortin receptor 4 [4] it was 9.11; at Melanocortin receptor 5, < 6.30. This compound also gave a pEC50 at Melanocortin receptor 4 [1] of 9.57.
Compound `CSCC[C@H](NC(=O)[C@H](CCCNC(=N)N)NC(=O)[C@H](Cc1ccc(O)cc1)NC(C)=O)C(=O)N[C@@H](CCC(=O)O)C(=O)N[C@@H](Cc1cnc[nH]1)C(=O)N[C@H](Cc1ccccc1)C(=O)N[C@@H](CCCNC(=N)N)C(=O)N[C@@H](Cc1c[nH]c2ccccc12)C(=O)NCC(N)=O` had a pEC50 on Melanocortin receptor 4 [1] of 9.80. For the same compound, the negative-log Ki (pKi) on Melanocortin receptor 3 [2] is 8.84; in assay [3], 9.68; on Melanocortin receptor 4 [4], 9.26; on Melanocortin receptor 5, 9.08.
With `CC(=O)N[C@H](CCCNC(=N)N)C(=O)N[C@H]1CSSC[C@@H](C(N)=O)NC(=O)[C@H](Cc2c[nH]c3ccccc23)NC(=O)[C@H](CCCNC(=N)N)NC(=O)[C@@H](Cc2ccccc2)NC(=O)[C@H](Cc2c[nH]cn2)NC(=O)[C@H](CCC(=O)O)NC1=O`, the negative-log Ki (pKi) is 9.41 at Melanocortin receptor 4 [5], 7.25 at Melanocortin receptor 3 [2], 7.78 in assay [3] and < 6.30 on Melanocortin receptor 5. Besides, the pEC50 at Melanocortin receptor 3 [6] was 8.79.
In the case of `CC(=O)N[C@H]1CSSC[C@@H](C(N)=O)NC(=O)[C@H](Cc2c[nH]c3ccccc23)NC(=O)[C@H](CCCNC(=N)N)NC(=O)[C@@H](Cc2ccccc2)NC(=O)[C@H](Cc2c[nH]cn2)NC(=O)[C@H](CCC(=O)O)NC1=O`, the figures for the negative-log Ki (pKi) (in assay [3]; at Melanocortin receptor 5) were 7.17 and < 6.30, respectively.
With `CC(=O)N[C@@H](Cc1ccc(O)cc1)C(=O)N[C@@H](CCCNC(=N)N)C(=O)N[C@H]1CSSC[C@@H](C(N)=O)NC(=O)[C@H](Cc2c[nH]c3ccccc23)NC(=O)[C@H](CCCNC(=N)N)NC(=O)[C@@H](Cc2ccc(F)cc2)NC(=O)[C@H](Cc2c[nH]cn2)NC(=O)[C@H](CCC(=O)O)NC1=O`, the pEC50 on Melanocortin receptor 4 [1] was 9.92. Also, the pKi at Melanocortin receptor 3 [2] is 7.80; in assay [3] it was 8.00; at Melanocortin receptor 4 [4], 9.55; at Melanocortin receptor 5 it was 6.62.
Turning to `CC(=O)N[C@@H](CCCNC(=N)N)C(=O)N[C@H]1CSSC[C@@H](C(N)=O)NC(=O)[C@H](Cc2c[nH]c3ccccc23)NC(=O)[C@H](CCCNC(=N)N)NC(=O)[C@@H](Cc2ccccc2)NC(=O)[C@H](Cc2c[nH]cn2)NC(=O)[C@H](CCC(=O)O)NC1=O`, the pKi on Melanocortin receptor 3 [2] is 7.47; in assay [3], 7.99; at Melanocortin receptor 5 it was < 6.30. On Melanocortin receptor 3 [6], this compound had a pEC50 of 9.17.
Consider `CC(=O)N[C@@H](Cc1ccc(O)cc1)C(=O)N[C@@H](CCCN=C(N)N)C(=O)N[C@H]1CSSC[C@@H](C(N)=O)NC(=O)[C@H](Cc2c[nH]c3ccccc23)NC(=O)[C@H](CCCN=C(N)N)NC(=O)[C@H](Cc2ccccc2)NC(=O)[C@H](Cc2c[nH]cn2)NC(=O)[C@H](CCC(=O)O)NC1=O`, for which the negative-log EC50 (pEC50) at Melanocortin receptor 4 [1] was 8.28. Also, the pKi on Melanocortin receptor 3 [2] was < 6.30; in assay [3], 6.83; at Melanocortin receptor 4 [4], 7.52; on Melanocortin receptor 5, < 6.30.
Regarding `CC(=O)N[C@@H](Cc1ccc(O)cc1)C(=O)N[C@@H](CCCNC(N)=O)C(=O)N[C@H]1CSSC[C@@H](C(N)=O)NC(=O)[C@H](Cc2c[nH]c3ccccc23)NC(=O)[C@H](CCCNC(=N)N)NC(=O)[C@@H](Cc2ccccc2)NC(=O)[C@H](Cc2c[nH]cn2)NC(=O)[C@H](CCC(=O)O)NC1=O`, the negative-log EC50 (pEC50) on Melanocortin receptor 4 [1] is 9.10. The pKi was 6.50 at Melanocortin receptor 3 [2], 7.31 in assay [3], 8.60 at Melanocortin receptor 4 [4] and < 6.30 at Melanocortin receptor 5.
At Melanocortin receptor 4 [1], `CC(=O)N[C@@H](Cc1ccc(O)cc1)C(=O)N[C@@H](CCCCN)C(=O)N[C@H]1CSSC[C@@H](C(N)=O)NC(=O)[C@H](Cc2c[nH]c3ccccc23)NC(=O)[C@H](CCCNC(=N)N)NC(=O)[C@@H](Cc2ccccc2)NC(=O)[C@H](Cc2c[nH]cn2)NC(=O)[C@H](CCC(=O)O)NC1=O` gave a pEC50 of 10.00. Further, the pKi in assay [3] was 7.80; on Melanocortin receptor 4 [4], 8.91; at Melanocortin receptor 5 it was < 6.30.
In turn, `CC(=O)N[C@@H](Cc1ccc(O)cc1)C(=O)N[C@@H](CCCN=C(N)N)C(=O)N[C@H]1CSSC[C@@H](C(N)=O)NC(=O)[C@H](Cc2c[nH]c3ccccc23)NC(=O)[C@H](CCCN=C(N)N)NC(=O)[C@@H](Cc2ccc3ccccc3c2)NC(=O)[C@H](Cc2c[nH]cn2)NC(=O)[C@H](CCC(=O)O)NC1=O` showed a pEC50 at Melanocortin receptor 4 [1] of 9.19. Besides, the pKi on Melanocortin receptor 3 [2] is 8.16; in assay [3] it was 6.92; at Melanocortin receptor 4 [4], 9.52; on Melanocortin receptor 5, 7.42.
Turning to `CSCC[C@H](NC(=O)[C@H](CCCN=C(N)N)NC(=O)[C@H](Cc1ccc(O)cc1)NC(=O)[C@@H]1CCCN1C(=O)CNC(=O)[C@H](CCC(=O)O)NC(=O)[C@H](CC(=O)O)NC(=O)[C@H](CCCCN)NC(=O)[C@H](CCCCN)NC(=O)[C@H](CCC(=O)O)NC(=O)[C@H](C)N)C(=O)N[C@@H](CCC(=O)O)C(=O)N[C@@H](Cc1c[nH]cn1)C(=O)N[C@@H](Cc1ccccc1)C(=O)N[C@@H](CCCN=C(N)N)C(=O)N[C@@H](Cc1c[nH]c2ccccc12)C(=O)NCC(=O)N[C@@H](CO)C(=O)N1CCC[C@H]1C(=O)N1CCC[C@H]1C(=O)N[C@@H](CCCCN)C(=O)N[C@@H](CC(=O)O)C(=O)O`, the pKi on Melanocortin receptor 3 [2] is 7.97; in assay [3] it was 9.05; on Melanocortin receptor 5, 7.11.
Consider `CSCC[C@H](NC(=O)[C@H](CCCNC(=N)N)NC(=O)[C@H](Cc1ccc(O)cc1)NC(C)=O)C(=O)N[C@@H](CCC(=O)O)C(=O)N[C@@H](Cc1cnc[nH]1)C(=O)N[C@H](Cc1ccccc1)C(=O)N[C@@H](CCCNC(=N)N)C(=O)N[C@@H](Cc1c[nH]c2ccccc12)C(=O)NCC(=O)N[C@@H](CO)C(=O)N1CCC[C@H]1C(=O)N1CCC[C@H]1C(=O)N[C@@H](CCCCN)C(=O)N[C@@H](CC(=O)O)C(N)=O`, for which, on Melanocortin receptor 4 [1], the negative logarithm of the EC50 (pEC50) is 9.25. For the same compound, the pKi was 9.96 at Melanocortin receptor 3 [2], 10.05 in assay [3], 9.57 at Melanocortin receptor 4 [4] and 9.59 at Melanocortin receptor 5.
In the same order, the values of `CC(=O)N[C@@H](Cc1ccc(O)cc1)C(=O)N[C@@H](CCCNC(=N)N)C(=O)N[C@H]1CSSC[C@@H](C(N)=O)NC(=O)[C@H](Cc2c[nH]c3ccccc23)NC(=O)[C@H](CCCNC(=N)N)NC(=O)[C@@H](Cc2ccc(Cl)cc2)NC(=O)[C@H](Cc2c[nH]cn2)NC(=O)[C@H](CCC(=O)O)NC1=O` are 10.22, 8.51, 8.09, 9.85 and 7.37.
In turn, `CSC[C@H](NC(=O)[C@H](Cc1c[nH]c2ccccc12)NC(=O)[C@H](CCCNC(=N)N)NC(=O)[C@@H](Cc1ccccc1)NC(=O)[C@H](Cc1cnc[nH]1)NC(=O)[C@H](CCC(=O)O)NC(=O)[C@H](CSC)NC(=O)[C@H](CCCNC(=N)N)NC(=O)[C@H](Cc1ccc(O)cc1)NC(C)=O)C(N)=O` had a pEC50 at Melanocortin receptor 4 [1] of 9.04. Besides, the negative logarithm of the Ki (pKi) was 6.78 at Melanocortin receptor 3 [2], 8.56 in assay [3], 7.88 at Melanocortin receptor 4 [4] and 7.21 at Melanocortin receptor 5.
Consider H-GPYRMEHFRWGSPPKD-NH2, for which the pEC50 on Melanocortin receptor 4 [1] is 9.17. Further, the pKi on Melanocortin receptor 3 [2] was 8.03; in assay [3] it was 9.29; at Melanocortin receptor 4 [4], 8.28; at Melanocortin receptor 5 it was 7.61.
